BindingDB's records for doi:10.1016/s0960-894x(00)00661-2 (Niddk, 2001)

Biological target: T1, Corticotropin-releasing factor receptor 1 (Rattus norvegicus, UniProt P35353)
T1 sequence (P35353 whole entry): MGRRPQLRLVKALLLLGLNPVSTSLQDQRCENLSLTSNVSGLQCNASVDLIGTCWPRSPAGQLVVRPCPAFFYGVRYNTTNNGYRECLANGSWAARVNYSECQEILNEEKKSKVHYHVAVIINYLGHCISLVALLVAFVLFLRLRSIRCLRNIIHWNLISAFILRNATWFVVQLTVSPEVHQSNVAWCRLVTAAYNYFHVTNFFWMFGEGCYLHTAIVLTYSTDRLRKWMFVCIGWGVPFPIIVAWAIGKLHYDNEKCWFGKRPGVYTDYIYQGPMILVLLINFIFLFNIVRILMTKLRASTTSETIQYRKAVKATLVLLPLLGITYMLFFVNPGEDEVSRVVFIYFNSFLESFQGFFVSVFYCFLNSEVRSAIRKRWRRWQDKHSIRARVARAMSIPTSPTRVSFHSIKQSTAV
Assay: ChEBML_51283
Text: Binding affinity towards Corticotropin releasing hormone receptor type 1 of rat cerebellum using [125I]Tyr-sauvagine as radioligand.

CCC[CH2][Sn]([CH2]CCC)([CH2]CCC)[c]1cc(Cl)c(Nc2nc(C)nc(N(CCC)CC3CC3)c2Cl)c(Cl)c1 [5-Chloro-N-cyclopropylmethyl-N'-(2,6-dichloro-4-tributylstannanyl-phenyl)-2-methyl-N-propyl-pyrimidine-4,6-diamine]
Ki: 3 nM
